Reference: patent publication US10519211B2, “Compounds as peptidic GLP1/glucagon/GIP receptor agonists” (SANOFI, priority 2016, dated 2019)
Numbered stars: 1 amine (or outer) side, 2 acyl side, 3 side chain; on linkers, the order of the positions; unused ones are H or OH. Square brackets hold non-standard residues; d marks the D form. Side chains are listed from the residue outwards. Peptide text beside a SMILES is read from it. * marks the point of attachment. γGlu = O=C(O)[C@H](CCC(=O)[*:2])N[*:1]; Palmitoyl = CCCCCCCCCCCCCCCC(=O)*; Aib = CC(C)(N)C(=O)O

Tested on: female diet-induced obese (DIO) C57BL/6NHsd mice
Assay: Acute and chronic effects after subcutaneous treatment in female diet-induced obese (DIO) mice
Format: in vivo, mouse
Settings: for Plasma insulin concentrations compared to DIO vehicle / Plasma total cholesterol concentrations compared to DIO vehicle: day 28; for 24 hour blood glucose profile following first treatment: 30 μg/kg s.c., day 1, fed DIO mice, vs DIO control; for Body mass change / Whole body fat mass change / Terminal liver mass (g) / Terminal plasma alanine aminotransferase (U/L) / Terminal plasma insulin (U/L) / Terminal plasma total cholesterol (mmol/L): twice-daily 30 μg/kg s.c.; for Body mass change: mean ± SEM; for Whole body fat mass change: QNMR predose vs day 26, mean ± SEM; for Terminal liver mass (g) / Terminal plasma alanine aminotransferase (U/L) / Terminal plasma insulin (U/L) / Terminal plasma total cholesterol (mmol/L): day 28, mean ± SEM
Protocol: Female C57BL/6NHsd mice were ordered group housed from Envigo RMS Inc., shipped group housed and remained group housed with shipped cage mates in shoebox caging with wood chip bedding until day 38 of the predose phase. At the study start mice were between 25-26 weeks old.
Mice were housed under vivarium conditions that included a 12 h light/dark cycle (light phase 04:00 AM-4:00 PM), room temperatures between 23-26° C. and a relative humidity between 30-70%. All animals had free access to water and a high fat diet (TD97366) for 16 weeks prior to pharmacological intervention (dosing phase). Feed was replaced with fresh feed weekly until and for the last time on day 38 of the predose phase. During the subsequent dosing phase, approximately 50% of the remaining feed were removed, replaced with fresh feed, and pellets were mixed evenly once per week.
On predose day 38, obese DIO mice were assigned to treatment groups (n=8) to match mean body masses between all DIO groups. An age-matched group with ad libitum access to a rodent maintenance diet (Teklad Global Diets Rodent 2014, pelleted) was included in the study as a lean control group. In the predosing phase from day 32 through 38, all study animals were treated with vehicle (Phosphate Buffered Saline, PBS, Gibco, without CaCl2 and MgCl2) once daily (s.c. approximately 0.2 mL/mouse).
On day 37 of the predose phase, the test article was diluted with PBS to a concentration of 100 μg/mL and aliquots of this stock solution were stored at approximately ≤−60° C. Stock aliquots were thawed for weekly use and thereafter stored in a refrigerator at approximately 4° C. The injected test article solution was prepared fresh once on each dosing day by diluting stock solution with PBS to achieve the desired concentration.
Mice were treated twice daily with a s.c. injection of PBS-vehicle or the test article for 28 days. The morning dosing was initiated and completed between 06:00 and 07:30 AM and the afternoon dosing between 2:00 and 3:30 PM. On day 28 of the dosing phase only the morning dose was administered. The applied volume was 5 ml/kg and the dose was adjusted to the most recent body mass recording of each individual.
Animals had unlimited access to water and feed during the experiment. On day 1 of the dosing phase approximately 5 μL of blood were collected via tail clips at hour 0, prior to the first s.c. dose of PBS-vehicle or test-article as well as 1, 2, 3, 4, 6, and 24 hours post-dose. Animals received the second s.c. dose of PBS-vehicle or test-article 8 hours after the first dose. The 24 hour blood collection of the blood glucose profile was performed prior to dosing on day 2. Glucose measurements were performed in whole blood and in duplicate or triplicate using Aviva glucometers.
Body mass was measured daily approximately between 06:00-07:30 AM from day 32 through 38 of the predosing phase and throughout the 28 days of the dosing phase. During the dosing phase mice were treated twice daily with either a s.c. injection of PBS-vehicle or test article.
To determine whole body fat mass Quantitative Nuclear Magnetic Resonance (QNMR) measurements were performed on predosing day 37 and on day 26 of the dosing phase. During the dosing phase mice were treated twice daily with either a s.c. injection of PBS-vehicle or test article.
On day 28 blood was collected prior to any other inlife activities for determination of plasma insulin concentrations. Then the morning dose was administered and necropsy was performed 4 hours post-dose. For this purpose animals were anesthetized with isoflurane and blood was collected by orbital bleeding.
On day 28 and 4 hours after the morning dose, blood was collected from mice under isoflurane anesthesia as described above. Then mice were killed and livers were collected and weighed.
Data are depicted as means±SEM. […] A One-Way ANOVA and Tukey Test were used for pairwise multiple comparisons of all groups (n=8/group, deviations from group size are indicated). […]

[1] = 30 μg/kg s.c. twice daily, 28 days, in words
[2] = 30 μg/kg s.c. twice daily, in words

SMILES	Body mass compared to the DIO-Vehicle group [1]	Plasma insulin concentrations compared to DIO vehicle [2]	Plasma total cholesterol concentrations compared to DIO vehicle [2]	Liver mass on day 28 compared to DIO animals treated with vehicle [2]	Plasma alanine aminotransferase concentration on day 28 compared to DIO vehicle [2]	24 hour blood glucose profile following first treatment (in words)	Body mass change (Table 11, 28 days) [g]	Whole body fat mass change (Table 11) [g]	Terminal liver mass (g) (Table 11)	Terminal plasma alanine aminotransferase (U/L) (Table 11)	Terminal plasma insulin (U/L) (Table 11)	Terminal plasma total cholesterol (mmol/L) (Table 11)	Whole body fat mass compared to the DIO-Vehicle group [1]	Body mass change (Table 9, 28 days) [g]	Whole body fat mass change (Table 9) [g]	Terminal liver mass (g) (Table 9)	Terminal plasma alanine aminotransferase (U/L) (Table 9)	Terminal plasma insulin (U/L) (Table 9)	Terminal plasma total cholesterol (mmol/L) (Table 9)
CCCCCCCCCCCCCCCC(=O)N[C@@H](CCC(=O)N[C@@H](CCC(=O)NCCCC[C@H](NC(=O)[C@H](CC(C)C)NC(=O)[C@H](CCCCN)NC(=O)[C@H](CO)NC(=O)[C@H](CC(C)C)NC(=O)[C@H](CC(=O)O)NC(=O)[C@H](CO)NC(=O)[C@@H](NC(=O)[C@H](Cc1ccccc1)NC(=O)[C@@H](NC(=O)CNC(=O)[C@H](CCC(N)=O)NC(=O)C(C)(C)NC(=O)[C@@H](N)Cc1c[nH]cn1)[C@@H](C)O)[C@@H](C)O)C(=O)N[C@@H](CCC(=O)O)C(=O)N[C@@H](CCC(=O)O)C(=O)N[C@@H](CCC(N)=O)C(=O)N[C@@H](CCCNC(=N)N)C(=O)N[C@@H](CCC(N)=O)C(=O)NC(C)(C)C(=O)N[C@@H](CCC(=O)O)C(=O)N[C@@H](Cc1ccccc1)C(=O)N[C@H](C(=O)N[C@@H](CCC(=O)O)C(=O)N[C@@H](Cc1c[nH]c2ccccc12)C(=O)N[C@@H](CC(C)C)C(=O)N[C@@H](CCCCN)C(=O)N[C@@H](C)C(=O)N[C@H](C)C(=O)NCC(=O)N1CCC[C@H]1C(=O)N1CCC[C@H]1C(=O)N[C@@H](CO)C(=O)NC(C)(C)C(=O)N[C@@H](CCCCN)C(=O)N1CCC[C@H]1C(=O)N1CCC[C@H]1C(=O)N1CCC[C@H]1C(=O)N[C@@H](CCCCN)C(N)=O)[C@@H](C)CC)C(=O)O)C(=O)O [SEQ ID NO: 10, H-Aib-Q-G-T-F-T-S-D-L-S-K-L-K[gGlu-gGlu-Palm]-E-E-Q-R-Q-Aib-E-F-I-E-W-L-K-A-dAla-G-P-P-S-Aib-K-P-P-P-K-NH2] (H-H[Aib]QGTFTSDLSKLK([γGlu-γGlu-Palmitoyl])EEQRQ[Aib]EFIEWLKA[dA]GPPS[Aib]KPPPK-NH2)	statistically significant decrease in body mass	statistically significant reduction in plasma insulin concentrations	statistically significant reduction in plasma total cholesterol concentrations	statistically significantly lower liver mass	statistically significantly lower plasma alanine aminotransferase concentration	decrease in blood glucose concentrations below concentrations observed in DIO control mice	-7.14 ± 0.64	-6.48 ± 0.90	+1.07 ± 0.04 g	+56.75 ± 4.65 U/L	+35.81 ± 2.79 U/L	+4.28 ± 0.15 mmol/L	–	–	–	–	–	–	–
CCCCCCCCCCCCCCCC(=O)N[C@@H](CCC(=O)N[C@@H](CCC(=O)NCCCC[C@H](NC(=O)[C@H](CC(C)C)NC(=O)[C@H](CCCCN)NC(=O)[C@H](CO)NC(=O)[C@H](CC(C)C)NC(=O)[C@H](CC(=O)O)NC(=O)[C@H](CO)NC(=O)[C@@H](NC(=O)[C@H](Cc1ccccc1)NC(=O)[C@@H](NC(=O)CNC(=O)[C@H](CCC(N)=O)NC(=O)C(C)(C)NC(=O)[C@@H](N)Cc1c[nH]cn1)[C@@H](C)O)[C@@H](C)O)C(=O)N[C@@H](CCC(=O)O)C(=O)N[C@@H](CCCCN)C(=O)N[C@@H](CCC(N)=O)C(=O)N[C@@H](CCCNC(=N)N)C(=O)N[C@@H](CCC(N)=O)C(=O)NC(C)(C)C(=O)N[C@@H](CCC(=O)O)C(=O)N[C@@H](Cc1ccccc1)C(=O)N[C@H](C(=O)N[C@@H](CCC(=O)O)C(=O)N[C@@H](Cc1c[nH]c2ccccc12)C(=O)N[C@@H](CC(C)C)C(=O)N[C@@H](CCCCN)C(=O)N[C@@H](C)C(=O)N[C@H](C)C(=O)NCC(=O)N1CCC[C@H]1C(=O)N1CCC[C@H]1C(=O)N[C@@H](CO)C(=O)NC(C)(C)C(=O)N[C@@H](CCCCN)C(=O)N1CCC[C@H]1C(=O)N1CCC[C@H]1C(=O)N1CCC[C@H]1C(=O)N[C@@H](CCCCN)C(N)=O)[C@@H](C)CC)C(=O)O)C(=O)O [SEQ ID NO: 7, H-Aib-Q-G-T-F-T-S-D-L-S-K-L-K[gGlu-gGlu-Palm]-E-K-Q-R-Q-Aib-E-F-I-E-W-L-K-A-dAla-G-P-P-S-Aib-K-P-P-P-K-NH2] (H-H[Aib]QGTFTSDLSKLK([γGlu-γGlu-Palmitoyl])EKQRQ[Aib]EFIEWLKA[dA]GPPS[Aib]KPPPK-NH2)	statistically significant decrease in body mass	statistically significant reduction in plasma insulin concentrations	statistically significant reduction in plasma total cholesterol concentrations	statistically significantly lower liver mass	statistically significantly lower plasma alanine aminotransferase concentration	decrease in blood glucose concentrations below concentrations observed in DIO control mice	–	–	–	–	–	–	statistically significantly reduction in whole body fat mass	-5.58 ± 0.60	-4.46 ± 0.50	+1.14 ± 0.04 g	+47.63 ± 6.76 U/L	+58.04 ± 6.33 U/L	+4.19 ± 0.15 mmol/L
